Test results taken from US20190010167A1, “INHIBITORS OF THE MENIN-MLL INTERACTION” (Vitae Pharmaceuticals, Inc., priority 2015, published 2019).
Where a name gives a salt, the structure may show the parent alone.

Key:
[1] = target: T1, menin/MLL (Gal4-Menin and MLL1-46-VP16) in HEK293 cells (Homo sapiens, UniProt O00255); assay: Mammalian cellular two-hybrid assay in HEK293 cells (Assay 2, cell assay); assay type: cell-based; settings: Gal4-Menin/MLL1-46-VP16 two-hybrid, NanoLuc luciferase reporter, 16-18 h
T1 construct: expressed in transfected cells; host or cells: HEK293 (ATCC)
Procedure: Potencies of inhibitor compounds against menin/MLL were tested in a mammalian cellular two-hybrid assay system. HEK293 cells (American Type Culture Collection (ATCC); Manassas, Va.) were co-transfected with three plasmids: one encoding Gal4-Menin (200 ng per 10^6 cells), another encoding MLL1-46-VP16 (100 ng per 10^6 cells), and a reporter plasmid pNL3.3-4×UAS (500 ng per 10^6 cells) encoding secreted NanoLuc® luciferase (Promega) with the upstream 4×UAS repeats for Gal4 binding. Transfection was performed in Opti-MEM® media using Lipofectamine® LTX with Plus™ Reagent (ThermoFisher Scientific) according to manufacturer's protocol. Cells were incubated with transfection reagents at 37° C. 5% CO2 for 5-6 h, harvested by trypsinization and centrifugation at 300×g for 5 min and resuspended in Gibco® DMEM media (phenol red-free, no antibiotics) containing 10% delipidated fetal bovine serum (FBS) (ThermoFisher Scientific). Concentration of cells in the media was adjusted to 3.5×10^5 cells/ml, and 100 μl of the cell suspension was dispensed into each well of 96-well Costar™ black clear bottom cell culture plates (Fisher Scientific). Tested compounds were added as 100 μL of 2× solutions in the media. Final concentration of DMSO was 0.1% in all wells. The cells were incubated with tested compounds at 37° C. 5% CO2 for 16-18 h. At the end of the incubation, 40 μL of the conditioned media from each well was transferred into each well of 96-well Costar™ black half-area plates (Fisher Scientific), to which 40 μl of 2× reconstituted NanoGlo® luciferase assay reagent (Promega) was added and thoroughly mixed on a microshaker for 2-3 min. Remaining media in the culture plates was removed by emptying the wells and blotting the plates on filter paper. The cells were lysed with 1× CellTiter-Glo® Luminescent Cell Viability Assay reagent (Promega) for assessing toxicity of the tested compounds. Both, Nano-Glo® and CellTiter-Glo® luminescence intensities were measured on EnVision® multilabel plate reader (PerkinElmer). Percent inhibition values were calculated based on Nano-Glo® luciferase activity observed with the tested compounds vs. DMSO control and commercially available menin inhibitor MI-2-2 (4-(4-(5,5-Dimethyl-4,5-dihydrothiazol-2-yl)piperazin-1-yl)-6-(2,2,2-trifluoroethyl)thieno[2,3-d]pyrimidine) (EMD Millipore, Cat. No. 444825) incubated with cells at 5 μM. These percent inhibition values were regressed against compound concentrations in the assay using non-linear 4-parameter logit curve fitting (XLFit, IDBS). Half maximal inhibitory concentrations (IC50) were calculated as the parameters of the fit corresponding to the inflection points on semi-logarithmic dose-response curves.

[2] = target: T2, wild-type menin / MLL-AF9 fusion protein (Homo sapiens, UniProt O00255); assay: AlphaLISA menin/MLL binding assay, wild-type menin (Assay 1); settings: biotinylated wild-type menin 5 nM, MLL-AF9-FLAG lysate
T2 construct: made in house; host or cells: E. coli (menin); HEK293 cleared lysate (MLL-AF9-FLAG)
T2 sequence (O00255 1-610): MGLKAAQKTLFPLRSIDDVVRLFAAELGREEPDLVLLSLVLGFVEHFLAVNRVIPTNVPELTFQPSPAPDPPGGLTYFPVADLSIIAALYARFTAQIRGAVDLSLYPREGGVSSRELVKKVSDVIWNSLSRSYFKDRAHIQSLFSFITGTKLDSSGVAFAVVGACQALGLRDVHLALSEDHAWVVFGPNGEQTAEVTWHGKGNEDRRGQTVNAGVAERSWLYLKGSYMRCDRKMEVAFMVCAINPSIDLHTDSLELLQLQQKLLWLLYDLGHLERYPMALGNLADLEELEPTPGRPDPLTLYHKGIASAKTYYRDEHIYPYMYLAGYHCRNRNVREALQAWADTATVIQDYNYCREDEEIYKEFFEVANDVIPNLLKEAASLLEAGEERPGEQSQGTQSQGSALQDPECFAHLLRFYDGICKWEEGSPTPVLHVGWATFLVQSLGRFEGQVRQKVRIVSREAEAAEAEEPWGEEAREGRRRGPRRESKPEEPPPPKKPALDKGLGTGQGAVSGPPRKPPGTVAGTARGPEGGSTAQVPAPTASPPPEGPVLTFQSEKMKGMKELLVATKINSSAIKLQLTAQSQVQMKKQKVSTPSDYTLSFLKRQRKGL
Outline: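 Biotinylated wild-type or mutated menin (5 nM, E. coli-expressed) was preincubated 30 min at RT with compound and HEK293 lysate containing MLL1-1,396–AF9 1-92–FLAG. Buffer was 50 mM Tris-HCl pH 7.4, 5% DMSO, 50 mM NaCl, 0.01% BSA, 1 mM DTT. Anti-FLAG acceptor and streptavidin donor beads (10 μg/mL each) were then added for 60 min. IC50 came from a four-parameter fit of the Alpha signal inhibition.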

T1 sequence (P04386 1-147 partner limits assumed, species assumed, one chain of several): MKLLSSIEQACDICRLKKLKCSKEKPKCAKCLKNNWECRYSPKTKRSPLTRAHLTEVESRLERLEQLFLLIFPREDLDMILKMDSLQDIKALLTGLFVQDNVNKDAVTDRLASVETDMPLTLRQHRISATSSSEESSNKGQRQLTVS

| SMILES | IC50 [1] | IC50 [2] |
| --- | --- | --- |
| CS(=O)(=O)N[C@H]1CC[C@@H](CN2CCC3(CCN(c4ncnc5sc(CC(F)(F)F)cc45)C3)C2)CC1 (stereo partly shown) [Example 49, N-((1s,4s)-4-((7-(6-(2,2,2-trifluoroethyl)thieno[2,3-d]pyrimidin-4-yl)-2,7-diazaspiro[4.4]nonan-2-yl)methyl)cyclohexyl)methanesulfonamide] | 100 to 1000 nM | < 100 nM |
| CC(=O)Nc1cccc(CN2CCC3(CCN(c4ncnc5sc(CC(F)(F)F)cc45)C3)C2)c1 (stereo not shown) [Example 52, N-(3-((7-(6-(2,2,2-trifluoroethyl)thieno[2,3-d]pyrimidin-4-yl)-2,7-diazaspiro[4.4]nonan-2-yl)methyl)phenyl)acetamide] | 100 to 1000 nM | < 100 nM |
| Cc1cc(NS(C)(=O)=O)ccc1CN1CCC2(CCN(c3ncnc4sc(CC(F)(F)F)cc34)C2)C1 (stereo not shown) [Example 54, N-(3-methyl-4-((7-(6-(2,2,2-trifluoroethyl)thieno[2,3-d]pyrimidin-4-yl)-2,7-diazaspiro[4.4]nonan-2-yl)methyl)phenyl)methanesulfonamide] | 100 to 1000 nM | < 100 nM |
| CC(C)(N)C(=O)N1CCC2(CCN(c3ncnc4sc(CC(F)(F)F)cc34)C2)C1 (stereo not shown) [Example 58, 2-Amino-2-methyl-1-(7-(6-(2,2,2-trifluoroethyl)thieno[2,3-d]pyrimidin-4-yl)-2,7-diazaspiro[4.4]nonan-2-yl)propan-1-one] | 100 to 1000 nM | 100 to 1000 nM |
| CS(=O)(=O)Cc1ccc(CC(=O)N2CC3(C2)CN(c2ncnc4sc(CC(F)(F)F)cc24)C3)cc1 [Example 61, 2-(4-((methylsulfonyl)methyl)phenyl)-1-(6-(6-(2,2,2-trifluoroethyl)thieno[2,3-d]pyrimidin-4-yl)-2,6-diazaspiro[3.3]heptan-2-yl)ethan-1-one] | ≥ 1000 nM | 100 to 1000 nM |
| FC(F)(F)Cc1cc2c(N3CC4(CN(CC5CCCC(F)(F)C5)C4)C3)ncnc2s1 (stereo not shown) [Example 63, 4-(6-((3,3-difluorocyclohexyl)methyl)-2,6-diazaspiro[3.3]heptan-2-yl)-6-(2,2,2-trifluoroethyl)thieno[2,3-d]pyrimidine] | 100 to 1000 nM | < 100 nM |
| CC1(C)CCCC(CN2CC3(C2)CN(c2ncnc4sc(CC(F)(F)F)cc24)C3)C1 (stereo not shown) [Example 65, 4-(6-((3,3-dimethylcyclohexyl)methyl)-2,6-diazaspiro[3.3]heptan-2-yl)-6-(2,2,2-trifluoroethyl)thieno[2,3-d]pyrimidine] | 100 to 1000 nM | < 100 nM |
| FC(F)(F)Cc1cc2c(N3CC4(CN(CC5CCOCC5)C4)C3)ncnc2s1 [Example 66, 4-(6-((tetrahydro-2H-pyran-4-yl)methyl)-2,6-diazaspiro[3.3]heptan-2-yl)-6-(2,2,2-trifluoroethyl)thieno[2,3-d]pyrimidine] | 100 to 1000 nM | 100 to 1000 nM |
| FC(F)(F)Cc1cc2c(N3CC4(CN(CC5CCCC5)C4)C3)ncnc2s1 [Example 68, 4-(6-(cyclopentylmethyl)-2,6-diazaspiro[3.3]heptan-2-yl)-6-(2,2,2-trifluoroethyl)thieno[2,3-d]pyrimidine] | 100 to 1000 nM | < 100 nM |
| FC(F)(F)Cc1cc2c(N3CC4(CN(CC5CCCCC5)C4)C3)ncnc2s1 [Example 69, 4-(6-(cyclohexylmethyl)-2,6-diazaspiro[3.3]heptan-2-yl)-6-(2,2,2-trifluoroethyl)thieno[2,3-d]pyrimidine] | 100 to 1000 nM | < 100 nM |
| COC1CCC(CN2CC3(C2)CN(c2ncnc4sc(CC(F)(F)F)cc24)C3)CC1 (stereo not shown) [Example 75, 4-(6-((4-methoxycyclohexyl)methyl)-2,6-diazaspiro[3.3]heptan-2-yl)-6-(2,2,2-trifluoroethyl)thieno[2,3-d]pyrimidine] | 100 to 1000 nM | 100 to 1000 nM |
| OC1CCC(CN2CC3(C2)CN(c2ncnc4sc(CC(F)(F)F)cc24)C3)CC1 (stereo not shown) [Example 76, 4-((6-(6-(2,2,2-trifluoroethyl)thieno[2,3-d]pyrimidin-4-yl)-2,6-diazaspiro[3.3]heptan-2-yl)methyl)cyclohexan-1-ol] | 100 to 1000 nM | < 100 nM |
| Cc1c(CN2CCC3(CCN(c4ncnc5ccc(CC(F)(F)F)cc45)C3)C2)ccc2[nH]c(C#N)cc12 (stereo not shown) [Example 90, 4-methyl-5-((7-(6-(2,2,2-trifluoroethyl)quinazolin-4-yl)-2,7-diazaspiro[4.4]nonan-2-yl)methyl)-1H-indole-2-carbonitrile] | 100 to 1000 nM | < 100 nM |
| Cc1c(CN2CCC3(C2)CN(c2ncnc4sc(CC(F)(F)F)cc24)C3)ccc2[nH]c(C#N)cc12 [Example 92, 4-methyl-5-((2-(6-(2,2,2-trifluoroethyl)thieno[2,3-d]pyrimidin-4-yl)-2,6-diazaspiro[3.4]octan-6-yl)methyl)-1H-indole-2-carbonitrile] | 100 to 1000 nM | < 100 nM |
| FC(F)(F)Cc1cc2c(N3CC4(CCN(CC5CCOCC5)C4)C3)ncnc2s1 [Example 93, 4-(6-((tetrahydro-2H-pyran-4-yl)methyl)-2,6-diazaspiro[3.4]octan-2-yl)-6-(2,2,2-trifluoroethyl)thieno[2,3-d]pyrimidine] | ≥ 1000 nM | < 100 nM |
| Cc1c(CN2CCC3(CC2)CN(c2ncnc4sc(CC(F)(F)F)cc24)C3)ccc2[nH]c(C#N)cc12 [Example 96, 4-methyl-5-((2-(6-(2,2,2-trifluoroethyl)thieno[2,3-d]pyrimidin-4-yl)-2,7-diazaspiro[3.5]nonan-7-yl)methyl)-1H-indole-2-carbonitrile hydrochloride] | < 100 nM | < 100 nM |
| CS(=O)(=O)Nc1ccc(CN2CCC3(CC2)CN(c2ncnc4sc(CC(F)(F)F)cc24)C3)cc1 [Example 97, N-(4-((2-(6-(2,2,2-trifluoroethyl)thieno[2,3-d]pyrimidin-4-yl)-2,7-diazaspiro[3.5]nonan-7-yl)methyl)phenyl)methanesulfonamide] | 100 to 1000 nM | < 100 nM |
| FC(F)(F)Cc1cc2c(N3CC4(CCN(Cc5ccccc5)CC4)C3)ncnc2s1 [Example 98, 4-(7-benzyl-2,7-diazaspiro[3.5]nonan-2-yl)-6-(2,2,2-trifluoroethyl)thieno[2,3-d]pyrimidine] | 100 to 1000 nM | 100 to 1000 nM |
| FC(F)(F)Cc1cc2c(N3CC4(CCN(CC5CCOCC5)CC4)C3)ncnc2s1 [Example 99, 4-(7-((tetrahydro-2H-pyran-4-yl)methyl)-2,7-diazaspiro[3.5]nonan-2-yl)-6-(2,2,2-trifluoroethyl)thieno[2,3-d]pyrimidine] | ≥ 1000 nM | 100 to 1000 nM |
| CS(=O)(=O)N[C@H]1CC[C@H](CN2CCC3(CC2)CN(c2ncnc4sc(CC(F)(F)F)cc24)C3)CC1 [Example 106, N-((1r,4r)-4-((2-(6-(2,2,2-trifluoroethyl)thieno[2,3-d]pyrimidin-4-yl)-2,7-diazaspiro[3.5]nonan-7-yl)methyl)cyclohexyl)methanesulfonamide] | 100 to 1000 nM | < 100 nM |
